This experiment has as its system cold allodynia induced by paclitaxel. The experiment in a line: Cold allodynia (acetone application), paclitaxel animal model, oral cinnamic acid. The experiment is classed as in vivo, c57/bl6 mice. The protocol:
Six-week-old mice (c57/bl6 mice) were prepared as an experimental animal. Paclitaxel (Sigma-Aldrich) dissolved at a concentration of 6 mg/mL in a 1:1 solution of Cremophor EL and ethanol was diluted to a concentration of 2 mg/mL and intraperitoneally injected 4 times at 2 mg/kg. The dosage was administered every other day on days 0, 2, 4, and 6. Significant pain was observed from about 10 days after the first dosage. The reaction that occurred by applying about 20 μL of acetone to the soles of both rear paws of the experimental animal was observed and recorded for about 15 s. Behaviors that are criteria for recording are an avoidance reaction, a behavior of shaking the soles of the paw, and a behavior of licking the soles of the paw. The evaluation was repeated a total of three times, and the average of the number of recorded behaviors was confirmed. As a pre-behavioral experiment, 50 mg/kg and 100 mg/kg of cinnamic acid was orally administered to experimental animals induced with allodynia, and the effects after 1 h and 2 h were confirmed.

The structures appear in SMILES notation.

Take `O=C(O)/C=C/c1ccccc1` [cinnamic acid]: under “high dose 100 mg/kg p.o.”, the “time after administration up to which pain relief effect on cold allodynia was shown” value is “up to 1 h”. Besides, where the note is “mice, 50 mg/kg oral (FIG. 2)”, the “pain relief effect on cold allodynia” value is “no significant pain relief effect”. Moreover, the “pain relief effect on cold allodynia compared to control” value (mice, 100 mg/kg oral, after 1 h (FIG. 2)) is on record as “significant pain relief effect”.

These data come from US12285395B2, “Pharmaceutical composition for preventing or treating allodynia caused by anticancer agents” (UNIVERSITY-INDUSTRY COOPERATION GROUP OF KYUNG HEE …, priority 2018, dated 2025).
